From patent publication US20100210616A1, “METAL COMPLEXES INCORPORATED WITHIN BIODEGRADABLE NANOPARTICLES AND THEIR USE” (THE UNIVERSITY OF AKRON, priority 2007, published 2010) come the findings set out here.

Broadly, the MIC90 is the lowest concentration that inhibits either 90% of growth or 90% of the strains tested, depending on the study.

The subject of experiment [1] is J53 containing the silver resistance plasmid pMG101. Put plainly: microbe, parasite or virus in culture. The format is cell-based, E. coli. Particulars: Escherichia coli.
Experiment [2] deals with silver sensitive E. coli J53. Put plainly: MIC against silver sensitive E. coli J53. The experiment is classed as cell-based. Particulars: Escherichia coli.
Experiment [3] concerns P. aeruginosa (PAO1, PAM57-15 and PAJG3), B. cepacia (PC783), B. multivorans (HI2229), B. cenocepacia (J2315), B. dolosa, M. tuberculosis and control E. coli …. In words: MIC testing against panel of bacterial strains. Particulars: prior to loading in nanoparticles; for MIC range: panel of strains. The format is cell-based.
A short description of experiment [4]: MIC testing against panel of bacterial strains. The format is cell-based. Particulars: panel of strains; prior to loading in nanoparticles.
A further experiment has as its system M. tuberculosis. In words: MIC against M. tuberculosis. The experiment is classed as cell-based. Particulars: Mycobacterium tuberculosis.

SMILES strings stand for the structures.

In the case of `CC(=O)[O][Ag][CH]1N(C)c2c(n(C)c(=O)n(Cc3ccc4ccccc4c3)c2=O)N1C` (stereo not drawn) [compound 13], the MIC in experiment [1] was > 10 µg/mL; in experiment [2] it was 1 µg/mL; in the experiment on M. tuberculosis it was 16000 µg/mL. In addition, the MIC range in experiment [3] fell in the range of 0.8 to 2 µg/mL. Besides, the “antimicrobial effectiveness in MIC testing versus other more water soluble silver metal complexes” value in experiment [3] was “more effective”. Also, the MIC90 in experiment [4] turned out to be 0.8 µg/mL.
As for `CCCCCCN1C(Cl)=C(Cl)N(C)[CH]1[Ag][O]C(C)=O` (stereo not drawn) [compound 9], the MIC was > 10 µg/mL in experiment [1], 1 µg/mL in experiment [2] and 16000 µg/mL in the experiment with M. tuberculosis. Further, the MIC range in experiment [3] lay within 1 to 2 µg/mL. Also, the “antimicrobial effectiveness in MIC testing versus other more water soluble silver metal complexes” value in experiment [3] is given as “more effective”. The same compound came in with an MIC90 in experiment [4] of 1 µg/mL.
